The assay addresses T1, human Kv7.2+3 (Homo sapiens, UniProt O43525+O43526).
T1 construct: expressed in transfected cells; host or cells: HEK293
In words: FLIPR-based thallium influx characterization of Kv7.2+3 modulators. To be noted: for pEC50: HEK293 cells over-expressing human Kv7.2+3, Tl+ influx, BTC-AM, FLIPR, 50% of channel activity compared to retigabine control responses; for Emax: maximal response relative to the reference (retigabine) response, HEK293 human Kv7.2+3, Tl+ influx FLIPR, read-out: Efficacy. In kind it is cell-based. The protocol: This experiment determines the ability of a test compound to modulate the activity of Kv7.2+3 channels heterologously expressed in human HEK293 cells. The ability is determined relative to retigabine. The activity is determined using a standard thallium (I) sensitive assay, e.g. using a fluorometric method in a Fluorescent Image Plate Reader (FLIPR) as described below in more detail.
Full concentration/response curves are generated and EC50 values are calculated based on max values. EC50 values (Effective Concentration) represent the concentration of the test substance, at which 50% of the channel activity is obtained when compared to retigabine control responses. Maximal response determined relative to the reference (retigabine) response is calculated.
Human HEK293 cells over-expressing human Kv7.2+3 are grown in culture medium (DMEM supplemented with 10% foetal bovine serum), in polystyrene culture flasks ([…]) in a humidified atmosphere of 5% CO2 in air, at 37° C. Cell confluence should be 80-90% on day of plating. Cells are rinsed with 4 ml of PBS (phosphate buffered saline) and incubated 2 min with 1 ml of Trypsin-EDTA. After addition of 25 ml of culture medium cells are re-suspended by trituration with a 25 ml pipette.
The cells are seeded at a density of ˜3×10^6 cells/ml (25 μl/well) in black-walled, clear bottom, 384-well plates pre-treated with 0.01 g/l poly-D-lysin (20 μl/well for ≧30 min). Plated cells were allowed to proliferate for 24 h before loading with dye.
BTC-AM ([…], Invitrogen) is added 25.5 μl DMSO. The BTC-AM stock solution (2 mM) is diluted to a final concentration of 2 μM in Cl^− free assay buffer (in mM: 140 Natgluconate, 2.5 K^+-gluconate, 6 Ca2^+-gluconate, 1 Mg^2+ gluconate, 5 glucose, 10 HEPES, pH 7.3) containing 2 μM ouabain, 2 mM amaranth and 1 mM tartrazine.
The culture medium is aspirated from the wells, the cells are washed thrice in Cl^− free assay buffer, and 25 μl of the BTC-AM loading solution is added to each well. The cells are incubated at 37° C. for 60 min.
After the loading period, the Tl^+-sensitive BTC fluorescence signal is measured over time using a FLIPR.
• Temperature: Room temp. • First addition: 12 μl test or control compound after 15 sec at a rate of 30 μl/sec and starting height of 20 μl • Second addition: 12 μl stimulus buffer (Cl^− free assay buffer supplemented with 1 mM Tl2SO4, 5 mM K2SO4 as well as the quenchers amaranth (2 mM) and tartrazine (1 mM)) is added after an additional 3 minutes at a rate of 30 μl/sec and starting height of 30 μl • Reading intervals: First sequence—3 sec×5, 2 sec×24 and 5 sec×25 • Second sequence—1 sec×5, 2 sec×24 and 5 sec×36
Addition plates (compound plate and stimulus plate) are placed in positions 2 and 3, respectively. Cell plates are placed in position 1 and run using the “KCNQ (two additions)” program. FLIPR will then take the appropriate measurements in accordance with the interval settings above. Fluorescence obtained after stimulation is corrected for the mean basal fluorescence (in Cl^− free assay buffer).
Full concentration/response curves are generated and EC50 values (“Effective Concentration”; the concentration at which 50% of the channel activity is obtained when compared to retigabine control responses) are calculated based on peak values. Maximal response determined relative to the reference (retigabine) response is calculated.

The structures appear in SMILES notation. pEC50: −log10 of the molar value.

Take `O=C(CCc1ccccc1)Nn1c(N2CCCC2)nc2ccccc2c1=O` [Compound 1.6, N-(4-Oxo-2-pyrrolidin-1-yl-4H-quinazolin-3-yl)-3-phenyl-propionamide]: the pEC50 was 6.18 and the Emax was determined as 96%.

As to `O=C(CCc1cccc(F)c1)Nn1c(N2CCCC2)nc2ccccc2c1=O` [Compound 1.5, 3-(3-Fluoro-phenyl)-N-(4-oxo-2-pyrrolidin-1-yl-4H-quinazolin-3-yl)-propion-amide], the pEC50 was 6.39 and the Emax was 148%.
